Consider 20 molecules from patent US20250250261A1, “NOVEL SUBSTITUTED FLUORINATED VINYL-N-PROPYL-PYRROLIDINE COMPOUNDS, PROCESSES FOR THEIR PREPARATION AND THERAPEUTIC USES THEREOF” (SANOFI, priority 2022, published 2025).

The test deals with T1, ERα (Homo sapiens, UniProt P03372).
T1 construct: host or cells: MCF7
T1 sequence (P03372 1-595): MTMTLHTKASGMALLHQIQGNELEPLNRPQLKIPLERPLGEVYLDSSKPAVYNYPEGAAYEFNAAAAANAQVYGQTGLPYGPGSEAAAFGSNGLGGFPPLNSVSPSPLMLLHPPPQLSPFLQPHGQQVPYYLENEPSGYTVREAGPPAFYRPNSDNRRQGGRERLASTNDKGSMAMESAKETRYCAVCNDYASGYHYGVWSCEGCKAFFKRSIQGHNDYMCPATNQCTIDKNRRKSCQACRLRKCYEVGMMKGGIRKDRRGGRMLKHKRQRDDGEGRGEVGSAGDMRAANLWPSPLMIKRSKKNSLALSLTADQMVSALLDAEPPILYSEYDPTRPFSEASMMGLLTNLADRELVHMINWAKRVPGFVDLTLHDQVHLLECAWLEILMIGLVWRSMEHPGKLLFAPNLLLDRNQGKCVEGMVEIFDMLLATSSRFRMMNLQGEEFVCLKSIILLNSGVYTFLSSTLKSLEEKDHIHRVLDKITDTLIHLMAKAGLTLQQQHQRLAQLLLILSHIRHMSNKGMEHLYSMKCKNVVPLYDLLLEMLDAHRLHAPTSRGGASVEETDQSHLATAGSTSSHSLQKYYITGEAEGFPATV
In words: Estrogen receptor degradation activity: breast cancer cell ERα in cell western assay (MCF7 cells). It counts as cell-based. Particulars: 4 hours, % of ERα levels decrease relative to fulvestrant (0.1 μM) and DMSO. The protocol: Test: Estrogen Receptor Degradation Activity
Said test involves measuring the in vitro degradation activity of the compounds of the Table 1a.
The measurements of the degradation activities were made using a breast cancer cell ERα in cell western assay as described hereunder.
MCF7 cells (ATCC) were seeded in 384 wells microplate (collagen coated) at a concentration of 10000 cells/30 μL per well in red phenol free MEM alpha medium (invitrogen) containing 5% charcoal dextran striped FBS. The following day, 9 points serial 1:5 dilution of each compound was added to the cells in 2.5 μL at final concentrations ranging from 0.3-0.0000018 μM (in table 2), or 0.1 μM for fulvestrant (using as positive control). At 4 hours post compound addition the cells were fixed by adding 25 μL of formalin (final concentration 5% formalin containing 0.1% triton) for 10 minutes at room temperature and then washed twice with PBS. Then, 50 μL of LI-COR blocking buffer containing 0.1% Triton was added to plate for 30 minutes at room temperature. LI-COR blocking buffer was removed and cells were incubated overnight at cold room with 50 μL anti-ER rabbit monoclonal antibody (Thermo scientific MA1-39540) diluted at 1:1000 in LI-COR blocking buffer containing 0.1% tween-20. Wells which were treated with blocking buffer but no antibody were used as background control. Wells were washed twice with PBS (0.1% tween-20) and incubated at 37° C. for 60 minutes in LI-COR (0.1% tween-20) containing goat anti-rabbit antibody Alexa 488 (1:1000) and Syto-64 a DNA dye (2 μM final concentration). Cells were then washed 3 times in PBS and scanned in ACUMEN explorer (TTP-Labtech). Integrated intensities in the green fluorescence and red fluorescence were measured to determine the levels of ERα and DNA respectively.
The degradation activity with respect to estrogen receptors in this test is given by the concentration which degrades 50% of the estrogen receptor (or IC50) in nM.
The % of ERα levels decrease were determined as follows: % inhibition=100*(1−(sample−fulvestrant:DMSO−fulvestrant)).

Molecules are shown by their SMILES.

Turning to `Cl.O=C(O)c1ccc2c(c1)CCCC(c1ccc(Cl)cc1Cl)=C2c1ccc(/C=C2/CCN(CCCF)C2)cc1` [Compound 1, (Z)-8-(2,4-dichlorophenyl)-9-(4-((1-(3,3-fluoropropyl)pyrrolidin-3-ylidene)methyl)phenyl)-6,7-dihydro-5H-benzo[7]annulene-3-carboxylic acid, hydrochloride], the “% Degradation At 0.3 μM” value amounted to 96%.

Consider `O=C(O)c1ccc2c(c1)CCCC(c1ccc(F)cc1Cl)=C2c1ccc(/C=C2/CCN(CCCF)C2)cc1` [Compound 2, (Z)-8-(2-chloro-4-fluorophenyl)-9-(4-((1-(3,3-fluoropropyl)pyrrolidin-3-ylidene)methyl)phenyl)-6,7-dihydro-5H-benzo[7]annulene-3-carboxylic acid], for which the “% Degradation At 0.3 μM” value came to 91%.

On to `Cl.O=C(O)c1ccc2c(c1)OCCC(c1ccc(Cl)cc1Cl)=C2c1ccc(/C=C2/CCN(CCCF)C2)cc1` [Compound 3, (Z)-4-(2,4-dichlorophenyl)-5-(4-((1-(3-fluoropropyl)pyrrolidin-3-ylidene)methyl)phenyl)-2,3-dihydrobenzo[b]oxepine-8-carboxylic acid hydrochloride], for which the “% Degradation At 0.3 μM” value is reported as 95%.

In the case of `O=C(O)c1ccc2c(c1)CCCC(c1ccc(Cl)cc1Cl)=C2c1ccc(C=C2CCN(CCC(F)F)C2)cc1` [Compound 4, (Z)-8-(2,4-dichlorophenyl)-9-(4-((1-(3,3-difluoropropyl)pyrrolidin-3-ylidene)methyl)phenyl)-6,7-dihydro-5H-benzo[7]annulene-3-carboxylic acid], the “% Degradation At 0.3 μM” value is 73%.

Take `Cl.O=C(O)c1ccc2c(c1)CCCC(c1ccc(F)cc1F)=C2c1ccc(/C=C2/CCN(CCC(F)F)C2)cc1` [Compound 5, (Z)-8-(2,4-difluorophenyl)-9-(4-((1-(3,3-difluoropropyl)pyrrolidin-3-ylidene)methyl)phenyl)-6,7-dihydro-5H-benzo[7]annulene-3-carboxylic acid hydrochloride]: the “% Degradation At 0.3 μM” value was found to be 88%.

In the case of `Cc1cc(F)ccc1C1=C(c2ccc(/C=C3/CCN(CCCF)C3)cc2)c2ccc(C(=O)O)cc2CCC1` [Compound 6, (Z)-8-(4-fluoro-2-methylphenyl)-9-(4-((1-(3-fluoropropyl)pyrrolidin-3-ylidene)methyl)phenyl)-6,7-dihydro-5H-benzo[7]annulene-3-carboxylic acid], the “% Degradation At 0.3 μM” value is reported as 96%.

For `FCCCN1CC/C(=C/c2ccc(C3=C(c4ccccc4Cl)CCCc4ccccc43)cc2)C1` [Compound 7, (Z)-3-(4-(8-(2-chlorophenyl)-6,7-dihydro-5H-benzo[7]annulen-9-yl)benzylidene)-1-(3-fluoropropyl)pyrrolidine], the “% Degradation At 0.3 μM” value is given as 82%.

Regarding `O=C(O)c1ccc2c(c1)CCCC(c1ccc(F)cc1C(F)(F)F)=C2c1ccc(/C=C2/CCN(CCCF)C2)cc1` [Compound 8, (Z)-8-(4-fluoro-2-(trifluoromethyl)phenyl)-9-(4-((1-(3-fluoropropyl)pyrrolidin-3-ylidene)methyl)phenyl)-6,7-dihydro-5H-benzo[7]annulene-3-carboxylic acid], the “% Degradation At 0.3 μM” value is reported as 90%.

Take `O=C(O)c1ccc2c(c1)CCCC(c1ccc(F)cc1F)=C2c1ccc(/C=C2/CCN(CCCF)C2)cc1` [Compound 9, (Z)-8-(2,4-difluorophenyl)-9-(4-((1-(3,3-fluoropropyl)pyrrolidin-3-ylidene)methyl)phenyl)-6,7-dihydro-5H-benzo[7]annulene-3-carboxylic]: the “% Degradation At 0.3 μM” value came out at 93%.

With `Cc1c(Cl)cccc1C1=C(c2ccc(/C=C3/CCN(CCCF)C3)cc2)c2ccc(C(=O)O)cc2CCC1` [Compound 10, (Z)-8-(3-chloro-2-methylphenyl)-9-(4-((1-(3-fluoropropyl)pyrrolidin-3-ylidene)methyl)phenyl)-6,7-dihydro-5H-benzo[7]annulene-3-carboxylic acid], the “% Degradation At 0.3 μM” value is on record as 92%.

For `Cc1cccc(C2=C(c3ccc(/C=C4/CCN(CCCF)C4)cc3)c3ccc(C(=O)O)cc3CCC2)c1C(F)(F)F` [Compound 11, (Z)-9-(4-((1-(3-fluoropropyl)pyrrolidin-3-ylidene)methyl)phenyl)-8-(3-methyl-2-(trifluoromethyl)phenyl)-6,7-dihydro-5H-benzo[7]annulene-3-carboxylic acid], the “% Degradation At 0.3 μM” value is 93%.

For the molecule `Cc1cccc(C2=C(c3ccc(/C=C4/CCN(CCC(F)F)C4)cc3)c3ccc(C(=O)O)cc3CCC2)c1C(F)(F)F` [Compound 12, (Z)-9-(4-((1-(3,3-difluoropropyl)pyrrolidin-3-ylidene)methyl)phenyl)-8-(3-methyl-2-(trifluoromethyl)phenyl)-6,7-dihydro-5H-benzo[7]annulene-3-carboxylic acid], the “% Degradation At 0.3 μM” value came to 85%.

On to `Cc1c(Cl)cccc1C1=C(c2ccc(/C=C3/CCN(CCC(F)F)C3)cc2)c2ccc(C(=O)O)cc2CCC1` [Compound 13, (Z)-8-(3-chloro-2-methylphenyl)-9-(4-((1-(3,3-difluoropropyl)pyrrolidin-3-ylidene)methyl)phenyl)-6,7-dihydro-5H-benzo[7]annulene-3-carboxylic acid], for which the “% Degradation At 0.3 μM” value is on record as 86%.

Consider `Cc1c(C2=C(c3ccc(/C=C4/CCN(CCCF)C4)cc3)c3ccc(C(=O)O)cc3CCC2)cccc1C(F)(F)F` [Compound 14, (Z)-9-(4-((1-(3-fluoropropyl)pyrrolidin-3-ylidene)methyl)phenyl)-8-(2-methyl-3-(trifluoromethyl)phenyl)-6,7-dihydro-5H-benzo[7]annulene-3-carboxylic acid], for which the “% Degradation At 0.3 μM” value was determined as 92%.

For the molecule `Cc1cc(F)ccc1C1=C(c2ccc(/C=C3/CCN(CCC(F)F)C3)cc2)c2ccc(C(=O)O)cc2CCC1` [Compound 15, (Z)-9-(4-((1-(3,3-difluoropropyl)pyrrolidin-3-ylidene)methyl)phenyl)-8-(4-fluoro-2-methylphenyl)-6,7-dihydro-5H-benzo[7]annulene-3-carboxylic acid], the “% Degradation At 0.3 μM” value came out at 88%.

With `Cl.Oc1ccc2c(c1)CCCC(c1ccc(Cl)cc1Cl)=C2c1ccc(/C=C2/CCN(CCCF)C2)cc1` [Compound 16, (Z)-8-(2,4-dichlorophenyl)-9-(4-((1-(3-fluoropropyl)pyrrolidin-3-ylidene)methyl)phenyl)-6,7-dihydro-5H-benzo[7]annulen-3-ol hydrochloride], the “% Degradation At 0.3 μM” value was determined as 76%.

For `Oc1ccc2c(c1)CCCC(c1ccc(Cl)cc1Cl)=C2c1ccc(/C=C2/CCN(CCC(F)F)C2)cc1` [Compound 17, (Z)-8-(2,4-dichlorophenyl)-9-(4-((1-(3-difluoropropyl)pyrrolidin-3-ylidene)methyl)phenyl)-6,7-dihydro-5H-benzo[7]annulen-3-ol], the “% Degradation At 0.3 μM” value is listed as 61%.

As to `O=C(O)c1ccc2c(c1)CCCC(c1ccc(F)cc1C(F)(F)F)=C2c1ccc(/C=C2/CCN(CCC(F)F)C2)cc1` [Compound 18, (Z)-9-(4-((1-(3,3-difluoropropyl)pyrrolidin-3-ylidene)methyl)phenyl)-8-(4-fluoro-2-(trifluoromethyl)phenyl)-6,7-dihydro-5H-benzo[7]annulene-3-carboxylic acid], the “% Degradation At 0.3 μM” value is 86%.

For the molecule `Cc1c(C2=C(c3ccc(/C=C4/CCN(CCC(F)F)C4)cc3)c3ccc(C(=O)O)cc3CCC2)cccc1C(F)(F)F` [Compound 19, (Z)-9-(4-((1-(3,3-difluoropropyl)pyrrolidin-3-ylidene)methyl)phenyl)-8-(2-methyl-3-(trifluoromethyl)phenyl)-6,7-dihydro-5H-benzo[7]annulene-3-carboxylic acid], the “% Degradation At 0.3 μM” value is on record as 87%.

For the molecule `Cc1cc(F)cc(C)c1C1=C(c2ccc(/C=C3/CCN(CCC(F)F)C3)cc2)c2ccc(C(=O)O)cc2CCC1` [Compound 20], the “% Degradation At 0.3 μM” value stood at 85%.
